Experimental data: patent US20100311714A1, “1H-IMIDAZO[4,5-c]QUINOLINONE COMPOUNDS” (priority 2009, published 2010)
Read-outs that look alike come from different tables or passages of the source.

Experiments:
[1] = system: S6 Ribosomal Protein phosphorylation Ser235/236 in TSC1 null mouse embryo fibroblast (MEF) cells; assay: Reverse protein array, S6 Ribosomal Protein phosphorylation in TSC1 null MEF cells; format: cell-based; settings: 1 h, TSC1-/- MEFs, 60 minutes
Procedure, shortened: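 Phospho-S6 (Ser235/236) was quantified by reverse protein array of cell lysates with a phospho-specific primary antibody. […]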

PI3K alfa = target: T1, PI3K alfa (Homo sapiens, UniProt P42336); assay: PI3K alpha kinase assay (Kinase-Glo luminescence); format: biochemical
T1 construct: His tag (C); made in house; host or cells: baculovirus BV1075; Tn5 (Trichoplusia ni) or TiniPro insect cells
Procedure, shortened: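 IC50 values come from a four-parameter logistic fit of percent inhibition at eight concentrations, typically 10 to 0.003 μM. Recombinant PI3Kα at 10 nM turned over 1 μM ATP with 10 μg/mL PI for 60 min at room temperature, and residual ATP was measured by Kinase-Glo.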

T1 sequence (P42336 with tags, fused parts or gaps limits assumed): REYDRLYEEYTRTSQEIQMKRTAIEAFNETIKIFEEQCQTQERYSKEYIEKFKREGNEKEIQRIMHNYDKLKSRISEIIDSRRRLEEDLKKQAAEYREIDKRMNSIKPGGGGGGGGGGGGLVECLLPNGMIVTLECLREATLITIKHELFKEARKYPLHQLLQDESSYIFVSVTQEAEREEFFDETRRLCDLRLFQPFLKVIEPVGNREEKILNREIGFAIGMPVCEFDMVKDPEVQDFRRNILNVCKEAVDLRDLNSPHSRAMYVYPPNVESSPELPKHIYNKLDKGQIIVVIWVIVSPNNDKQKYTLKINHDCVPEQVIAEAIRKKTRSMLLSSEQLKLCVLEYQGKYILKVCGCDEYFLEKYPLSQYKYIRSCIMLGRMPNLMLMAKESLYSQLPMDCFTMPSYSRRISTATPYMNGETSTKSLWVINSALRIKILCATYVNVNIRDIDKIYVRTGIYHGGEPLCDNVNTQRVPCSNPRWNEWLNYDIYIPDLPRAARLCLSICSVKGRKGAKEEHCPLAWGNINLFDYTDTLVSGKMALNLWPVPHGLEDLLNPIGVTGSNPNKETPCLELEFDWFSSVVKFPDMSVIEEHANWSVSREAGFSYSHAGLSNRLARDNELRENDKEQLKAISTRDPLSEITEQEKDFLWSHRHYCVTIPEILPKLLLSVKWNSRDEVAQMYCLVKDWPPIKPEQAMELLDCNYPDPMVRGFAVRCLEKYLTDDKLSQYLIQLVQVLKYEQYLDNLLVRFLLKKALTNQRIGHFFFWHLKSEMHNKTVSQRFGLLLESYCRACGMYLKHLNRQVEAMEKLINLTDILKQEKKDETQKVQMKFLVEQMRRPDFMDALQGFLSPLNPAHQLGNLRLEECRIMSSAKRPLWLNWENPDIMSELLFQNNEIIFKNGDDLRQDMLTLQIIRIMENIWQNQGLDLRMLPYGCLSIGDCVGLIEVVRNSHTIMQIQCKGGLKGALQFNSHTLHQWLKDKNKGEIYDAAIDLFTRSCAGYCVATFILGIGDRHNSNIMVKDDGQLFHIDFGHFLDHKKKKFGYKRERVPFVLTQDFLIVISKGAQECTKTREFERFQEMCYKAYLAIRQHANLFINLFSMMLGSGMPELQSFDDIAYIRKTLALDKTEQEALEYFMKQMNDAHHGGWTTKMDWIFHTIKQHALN

| IC50 (PI3K alfa; read-out: EPK_PI3Kalfa/IC50) [nM] | IC50 (PI3K alfa; read-out: PI3Kalfa/IC50) [nM] | Compound | IC50 ([1]; read-out: p-S6 IC50) [nM] | IC50 ([1]; read-out: p-S6) [nM] |
| --- | --- | --- | --- | --- |
| 171 | – | COCCOc1ccc(-n2c(=O)n(C)c3cnc4ccc(-c5cncc(N6CCC6)c5)cc4c32)c(C)n1 [Example 22.2, 8-(5-Azetidin-1-yl-pyridin-3-yl)-1-[6-(2-methoxy-ethoxy)-2-methyl-pyridin-3-yl]-3-methyl-1,3-dihydro-imidazo[4,5-c]quinolin-2-one] | 2 | – |
| 35 | – | CNc1ccc(-c2ccc3ncc4c(c3c2)n(-c2ccc(N3CCCC3)nc2C)c(=O)n4C)cn1 [Example 25.1, 3-Methyl-8-(6-methylamino-pyridin-3-yl)-1-(2-methyl-6-pyrrolidin-1-yl-pyridin-3-yl)-1,3-dihydro-imidazo[4,5-c]quinolin-2-one] | 1 | – |
| 30 | – | CNc1ncc(-c2ccc3ncc4c(c3c2)n(-c2ccc(C)nc2C)c(=O)n4C)cn1 [Example 14.4, 1-(2,6-Dimethyl-pyridin-3-yl)-3-methyl-8-(2-methylamino-pyrimidin-5-yl)-1,3-dihydro-imidazo[4,5-c]quinolin-2-one] | 7 | – |
| 10 | – | Cc1nc(N2CC(F)(F)C2)ccc1-n1c(=O)n(C)c2cnc3ccc(-c4cncc(C(C)(C)O)c4)cc3c21 [Example 24.2, 1-[6-(3,3-Difluoro-azetidin-1-yl)-2-methyl-pyridin-3-yl]-8-[5-(1-hydroxy-1-methyl-ethyl)-pyridin-3-yl]-3-methyl-1,3-dihydro-imidazo[4,5-c]quinolin-2-one] | 1 | – |
| 140 | – | Cc1ccc(-n2c(=O)n(C)c3cnc4ccc(-c5cnc(N(C)C)nc5)cc4c32)c(C)n1 [Example 14.3, 8-(2-Dimethylamino-pyrimidin-5-yl)-1-(2,6-dimethyl-pyridin-3-yl)-3-methyl-1,3-dihydro-imidazo[4,5-c]quinolin-2-one] | 10 | – |
| – | 134 | COc1ncccc1-n1c(=O)n(C)c2cnc3ccc(-c4cnc5c(ccn5C)c4)cc3c21 [Example 1.7, 1-(2-Methoxy-pyridin-3-yl)-3-methyl-8-(1-methyl-1H-pyrrolo[2,3-b]pyridin-5-yl)-1,3-dihydro-imidazo[4,5-c]quinolin-2-one] | – | 12.1 |
| 59 | – | CCOCc1cc(-c2ccc3ncc4c(c3c2)n(-c2ccc(F)nc2C)c(=O)n4C)cnc1N [Example 7.15, 8-(6-Amino-5-ethoxymethyl-pyridin-3-yl)-1-(6-fluoro-2-methyl-pyridin-3-yl)-3-methyl-1,3-dihydro-imidazo[4,5-c]quinolin-2-one] | 8 | – |
| 17 | – | CNc1cc(-c2ccc3ncc4c(c3c2)n(-c2ccc(F)nc2C)c(=O)n4C)cnc1CO [Example 7.11, 1-(6-Fluoro-2-methyl-pyridin-3-yl)-8-(6-hydroxymethyl-5-methylamino-pyridin-3-yl)-3-methyl-1,3-dihydro-imidazo[4,5-c]quinolin-2-one] | 7 | – |
| – | 40 | CCOc1ccc(-c2ccc3ncc4c(c3c2)n(-c2cccnc2OC)c(=O)n4C)cn1 [Example 1.5, 8-(6-Ethoxy-pyridin-3-yl)-1-(2-methoxy-pyridin-3-yl)-3-methyl-1,3-dihydro-imidazo[4,5-c]quinolin-2-one] | – | 48.6 |
| 43 | – | CNc1ncc(-c2ccc3ncc4c(c3c2)n(-c2ccc(OCCOC)nc2C)c(=O)n4C)cn1 [Example 13.5, 1-[6-(2-Methoxy-ethoxy)-2-methyl-pyridin-3-yl]-3-methyl-8-(2-methylamino-pyrimidin-5-yl)-1,3-dihydro-imidazo[4,5-c]quinolin-2-one] | 1.1 | – |
| 18 | – | COCCN(C)c1ccc(-n2c(=O)n(C)c3cnc4ccc(-c5cnc6c(ccn6C)c5)cc4c32)c(C)n1 [Example 15.7, 1-{6-[(2-Methoxy-ethyl)-methyl-amino]-2-methyl-pyridin-3-yl}-3-methyl-8-(1-methyl-1H-pyrrolo[2,3-b]pyridin-5-yl)-1,3-dihydro-imidazo[4,5-c]quinolin-2-one] | 2 | – |
